Assay results as given in ChEMBL document CHEMBL3868587, “Heptaketides from an Endolichenic Fungus Biatriospora sp. and Their Antifungal Activity” (2016).
In brackets after ≈: the same amount, converted by molar mass. Activity calls are given as the source filed them. The rule behind the calls is not given here.

Legend:
Candida albicans [1] = assay: Antifungal activity against Candida albicans SC5314 by CLSI broth microdilution method; type: functional
[2] = Antifungal activity against fluconazole-resistant Candida albicans clinical isolate 145 by CLSI broth microdilution method; type: functional
[3] = Antifungal activity against fluconazole-resistant Candida albicans clinical isolate 147 by CLSI broth microdilution method; type: functional
Candida albicans [4] = assay: Inhibition of CDR1/CDR2 in Candida albicans clinical isolate 147 assessed as potentiation of fluconazole-induced antifungal activity by measuring fluconazole MIC80 up to 8 ug/ml after 24 hrs by XTT based broth microdilution assay (reference value: >128 ug/ml)
[5] = Antifungal activity against fluconazole-resistant Candida albicans clinical isolate 24D by CLSI broth microdilution method; type: functional
Candida albicans [6] = assay: Inhibition of CDR1/CDR2 in Candida albicans clinical isolate 18I assessed as potentiation of fluconazole-induced antifungal activity by measuring fluconazole MIC80 up to 8 ug/ml after 24 hrs by XTT based broth microdilution assay (reference value: >128 ug/ml)
[7] = Antifungal activity against fluconazole-resistant Candida albicans clinical isolate 142 by CLSI broth microdilution method; type: functional
Candida albicans [8] = assay: Inhibition of CDR1/CDR2 in Candida albicans clinical isolate 144 assessed as potentiation of fluconazole-induced antifungal activity by measuring fluconazole MIC80 up to 8 ug/ml after 24 hrs by XTT based broth microdilution assay (reference value: >128 ug/ml)
[9] = Antifungal activity against fluconazole-resistant Candida albicans clinical isolate 144 by CLSI broth microdilution method; type: functional
Candida albicans [10] = assay: Inhibition of CDR1/CDR2 in Candida albicans clinical isolate 142 assessed as potentiation of fluconazole-induced antifungal activity by measuring fluconazole MIC80 up to 8 ug/ml after 24 hrs by XTT based broth microdilution assay (reference value: >128 ug/ml)
[11] = Antifungal activity against fluconazole-resistant Candida albicans clinical isolate 18I by CLSI broth microdilution method; type: functional
Candida albicans [12] = assay: Inhibition of CDR1/CDR2 in Candida albicans clinical isolate 145 assessed as potentiation of fluconazole-induced antifungal activity by measuring fluconazole MIC80 up to 8 ug/ml after 24 hrs by XTT based broth microdilution assay (reference value: >128 ug/ml)
Candida albicans [13] = assay: Inhibition of CDR1/CDR2 in Candida albicans clinical isolate 24D assessed as potentiation of fluconazole-induced antifungal activity by measuring fluconazole MIC80 up to 8 ug/ml after 24 hrs by XTT based broth microdilution assay (reference value: >128 ug/ml)
[14] = Upregulation of CDR1 mRNA expression in fluconazole-resistant Candida albicans clinical isolate 24D at 2 ug/ml measured after 12 hrs by qPCR method relative to control; type: functional
Candida albicans [15] = assay: Inhibition of CDR1/CDR2 in Candida albicans clinical isolate 145 assessed as potentiation of fluconazole-induced antifungal activity up to 8 ug/ml after 24 hrs by broth microdilution checkerboard assay
[16] = Antifungal activity against Candida albicans clinical isolate 24D after 24 hrs in presence of fluconazole by XTT based broth microdilution assay; type: functional
[17] = Antifungal activity against Candida albicans clinical isolate 18I after 24 hrs in presence of fluconazole by XTT based broth microdilution assay; type: functional
Candida albicans [18] = assay: Inhibition of CDR1/CDR2 in Candida albicans clinical isolate 144 assessed as potentiation of fluconazole-induced antifungal activity up to 8 ug/ml after 24 hrs by broth microdilution checkerboard assay
Candida albicans [19] = assay: Antifungal activity against Candida albicans clinical isolate 144 after 24 hrs in presence of fluconazole by XTT based broth microdilution assay; type: functional; conditions: isolate 144, 24 h
Candida albicans [20] = assay: Inhibition of CDR1/CDR2 in Candida albicans clinical isolate 142 assessed as potentiation of fluconazole-induced antifungal activity measured as reduction in fluconazole MIC80 up to 8 ug/ml after 24 hrs by XTT based broth microdilution assay relative to fluconazole
[21] = Reduction in CDR2 mRNA expression in fluconazole-resistant Candida albicans clinical isolate 24D at 1 ug/ml measured after 12 hrs by qPCR method relative to control; type: functional
Candida albicans [22] = assay: Inhibition of Candida albicans clinical isolate 24D CDR1/CDR2 assessed as inhibtion of glucose-induced rhodamine-123 efflux at 1 ug/ml measured after 30 mins by flow cytometry
Candida albicans [23] = assay: Antifungal activity against Candida albicans clinical isolate 142 after 24 hrs in presence of fluconazole by XTT based broth microdilution assay; type: functional; conditions: isolate 142, 24 h
Candida albicans [24] = assay: Inhibition of CDR1/CDR2 in Candida albicans clinical isolate 24D assessed as potentiation of fluconazole-induced antifungal activity up to 8 ug/ml after 24 hrs by broth microdilution checkerboard assay
Candida albicans [25] = assay: Inhibition of CDR1/CDR2 in Candida albicans clinical isolate 18I assessed as potentiation of fluconazole-induced antifungal activity up to 8 ug/ml after 24 hrs by broth microdilution checkerboard assay
Candida albicans [26] = assay: Inhibition of Candida albicans clinical isolate 24D CDR1/CDR2 assessed as inhibtion of glucose-induced rhodamine-123 efflux at 1 ug/ml measured after 30 mins by confocal microscopic analysis
Candida albicans [27] = assay: Inhibition of CDR1/CDR2 in Candida albicans clinical isolate 147 assessed as potentiation of fluconazole-induced antifungal activity up to 8 ug/ml after 24 hrs by broth microdilution checkerboard assay
[28] = Reduction in CDR1 mRNA expression in fluconazole-resistant Candida albicans clinical isolate 24D at 1 ug/ml measured after 12 hrs by qPCR method relative to control; type: functional
Candida albicans [29] = assay: Inhibition of CDR1/CDR2 in Candida albicans clinical isolate 142 assessed as potentiation of fluconazole-induced antifungal activity up to 8 ug/ml after 24 hrs by broth microdilution checkerboard assay
Candida albicans [30] = assay: Antifungal activity against Candida albicans clinical isolate 145 after 24 hrs in presence of fluconazole by XTT based broth microdilution assay; type: functional; conditions: isolate 145, 24 h
[31] = Upregulation of CDR2 mRNA expression in fluconazole-resistant Candida albicans clinical isolate 24D at 2 ug/ml measured after 12 hrs by qPCR method relative to control; type: functional
[32] = Antifungal activity against Candida albicans clinical isolate 147 after 24 hrs in presence of fluconazole by XTT based broth microdilution assay; type: functional

Q: Which MIC80 (Candida albicans [1]) does the source give for `CC1=CC2=C(CO1)C(=O)c1c(O)cc(O)cc1C2=O` here?
A: 32 mg/L (≈ 124 µM)

Q: With `OC(Cn1cncn1)(Cn1cncn1)c1ccc(F)cc1F` [FLUCONAZOLE] as the compound, how does the MIC80 [2] read?
A: > 128 mg/L

Q: And the MIC80 [3]?
A: > 128 mg/L

Q: What about the MIC80 (Candida albicans [1]) of the same compound?
A: 2 mg/L (≈ 6.53 µM)

Q: What about the MIC80 (Candida albicans [4]) of the same compound?
A: 2 mg/L

Q: What about the MIC80 [5] of the same compound?
A: > 128 mg/L

Q: What about the MIC80 (Candida albicans [6]) of the same compound?
A: 1 mg/L

Q: And the MIC80 [7]?
A: > 128 mg/L

Q: And the MIC80 (Candida albicans [8])?
A: 2 mg/L

Q: And the MIC80 [9]?
A: > 128 mg/L

Q: And the MIC80 (Candida albicans [10])?
A: 0.5 mg/L

Q: What about the MIC80 [11] of the same compound?
A: > 128 mg/L

Q: And the MIC80 (Candida albicans [12])?
A: 4 mg/L

Q: And the MIC80 (Candida albicans [13])?
A: 2 mg/L

Q: For `COc1cc(O)c2c(c1)C(=O)C(CC(C)=O)=C(C)C2=O`, which MIC80 (Candida albicans [1]) is on record?
A: 64 mg/L (≈ 233 µM)

Q: With `COc1cc(O)c2c(c1)C(=O)C1=C(C2=O)[C@H](OC)O[C@@H](C)C1` as the compound, how does the MIC80 (Candida albicans [1]) read?
A: 64 mg/L (≈ 210 µM)

Q: Which MIC80 (Candida albicans [1]) does the source give for `CN(C/C=C/C#CC(C)(C)C)Cc1cccc2ccccc12` [TERBINAFINE] here?
A: 16 mg/L (≈ 54.9 µM)

Q: Which fold change (FC) [14] does the source give for `COc1cc(O)c2c(c1)-c1oc(C)cc1C(=O)C2=O` here?
A: 2

Q: And the MIC80 [2]?
A: 16 mg/L (≈ 62 µM)

Q: What about the fractional inhibitory concentration index (FICI) (Candida albicans [15]) of the same compound?
A: 0.04

Q: And the MIC80 [3]?
A: 16 mg/L (≈ 62 µM)

Q: And the MIC80 [16]?
A: 0.25 mg/L

Q: And the MIC80 [17]?
A: 0.25 mg/L

Q: And the MIC80 (Candida albicans [1])?
A: 16 mg/L (≈ 62 µM)

Q: And the fractional inhibitory concentration index (FICI) (Candida albicans [18])?
A: 0.02

Q: And the MIC80 [5]?
A: 16 mg/L (≈ 62 µM)

Q: And the MIC80 (Candida albicans [19])?
A: 0.125 mg/L

Q: What about the fold change (FC) (Candida albicans [20]) of the same compound?
A: > 256

Q: And the fold change (FC) [21]?
A: 0.5

Q: And the inhibition (Candida albicans [22])?
A: Active

Q: And the MIC80 [7]?
A: 16 mg/L (≈ 62 µM)

Q: And the MIC80 (Candida albicans [23])?
A: 0.125 mg/L

Q: And the fractional inhibitory concentration index (FICI) (Candida albicans [24])?
A: 0.03

Q: And the fractional inhibitory concentration index (FICI) (Candida albicans [25])?
A: 0.02

Q: And the MIC80 [9]?
A: 16 mg/L (≈ 62 µM)

Q: And the inhibition (Candida albicans [26])?
A: Active

Q: And the fractional inhibitory concentration index (FICI) (Candida albicans [27])?
A: 0.02

Q: What about the fold change (FC) [28] of the same compound?
A: 0.4

Q: And the MIC80 [11]?
A: 16 mg/L (≈ 62 µM)

Q: What about the fractional inhibitory concentration index (FICI) (Candida albicans [29]) of the same compound?
A: 0.01

Q: What about the MIC80 (Candida albicans [30]) of the same compound?
A: 0.125 mg/L

Q: What about the fold change (FC) [31] of the same compound?
A: 3.6

Q: And the MIC80 [32]?
A: 0.125 mg/L
